These results are taken from US6383773B2, “Penicillin conversion” (Massachusetts Institute of Technology, priority 1998, dated 2002).

Experiment [1] concerns resting S. clavuligerus NP1 cells. Put plainly: Penicillin G ring expansion by resting cells grown on alcohol (Example 3). It counts as cell-based. Particulars: 3 hours of reaction, 5.6 mM penicillin G; for Cephalosporin Production Specific: per mg DCW. The method, then:
Microorganisms, Media, and Culture Conditions: All experiments were done using S. clavuligerus NP1. Seed cultures were developed using 250 ml baffled flasks containing 40 ml of MST medium: 1% soluble starch (Sigma Chemical Co., St. Louis, Mo.); 3% Trypticase Soy Broth Without Dextrose (BBL, Cockeysville, Md.); 90 mM MOPS buffer, pH adjusted to 7.0 before autoclaving. Each flask was inoculated with 50 μl of a spore suspension (stored in 20% glycerol at −80° C.) and incubated at 30° C., 250 rpm for 48 h.
From a seed culture, 4 ml were transferred to 500 ml baffled flasks containing 80 ml of MT medium (3% Trypticase Soy Broth Without Dextrose; 90 mM MOPS buffer, pH adjusted to 7.0 before autoclaving) with or without 1-2% ethanol or methanol. Alcohols were added just before inoculation. Cells were grown at 30° C., 250 rpm for 24 h. Mycelia from each flask were washed twice and, finally, resuspended in 10 ml of distilled water. Four ml of this cell suspension were used in the ring-expanding biotransformation.
Ring Expansion: The ring expansion mixture contained 1.8 mM FeSO4, 1.28 mM α-ketoglutarate, 4 ml cell suspension, 5.6 mM penicillin G and 50 mM MOPS (pH 6.5) in a final volume of 10 ml contained in 250 ml baffled Erlenmeyer flasks. Additions were made in the order established by Shen et al. (Shen et al., Enzyme Microb. Technol. 17:231-234, 1984). Incubation was at 220 rpm and 30° C. for 1 to 3 h. Samples were collected and centrifuged. Biotransformation activity was detected by paper disc-agar diffusion bioassay.
Detection of Expandase Activity: Expandase activity was detected by paper disc-agar diffusion bioassay. Two superimposed paper discs (¼ inch; Schleicher & Schuell, Keene, N.H.) were saturated with 100 μl of each supernatant or standard. After each application, the discs were allowed to dry for 30 min in a laminar hood and then placed on Petri plates containing 10 ml of LB (1% tryptone, 0.5% NaCl, 0.5% yeast extract, 0.1% glucose) 0.8% agar medium containing 50,000 IU/ml of penicillinase (Difco Bacto penase concentrate, Difco Laboratories, Detroit, Mich.) seeded with E. coli ESS (a β-lactam-supersensitive mutant). The plates were incubated overnight at 37° C. The penicillinase used is a narrow spectrum β-lactamase that destroys the substrate penicillin G but not cephalosporins. The diameters of zones of growth inhibition were measured and quantified with calibration curves using pure DAOG as standard.
Dry Cell Weight (DCW) Assay: Two samples of 1 ml were taken from each cell suspension prepared in distilled water (10 ml), centrifuged (14,000×g, 10 min) and dried to constant weight at 65° C. The weights listed are those in the reaction mixture.

Experiment [2] relates to growing S. clavuligerus NP1 cells. Description: Conversion of penicillin G into DAOG by growing cells (Example 2). The class given is cell-based. The method, then:
Media: Seed culture was prepared using 250 ml baffled flasks containing 40 ml MST medium (90 mM MOPS, 3% Trypticase Soy Broth without Dextrose, 1% soluble starch) adjusted to pH 7.0 before autoclaving. Fermentation was carried out in the same medium or in the defined medium described by Mahro and Demain (1987) containing, per liter, 5 g MOPS; 3.5 g K2 HPO4; 1 ml trace solution containing 1 mg FeSO4.7H2O, 1 mg, MnCl2.4H2O, 1 mg ZnSO4.H2O and 1 mg CaCl2; 2 g L-asparagine; 0.6 g MgSO4.7H2O; 10 g glycerol; initial pH 7.0.
Culture Conditions: For the seed culture, each flask was inoculated with 50 μl of a spore suspension (prepared and stored in 20% glycerol at −80° C.) and incubated at 30° C. for 48 h. Fermentation were conducted in 250 ml baffled flasks containing 30 ml of medium at 30° C. at 250 rpm. Fermentations were started by transferring 1.5 ml of unwashed mycelium from the seed culture and their duration was 5 days. Once a day, samples were taken for pH, biomass and antibiotic analyses. Growth was measured as dry cell weight.
Bioassay: Cephalosporin type antibiotic(s) were detected by bioassay using Escherichia coli Ess seeded in LB (1% Tryptone, 0.5% NaCl, 0.5% Yeast Extract, 0.1% Glucose) 0.8% agar medium in the presence of penicillinase (Difco Laboratories, Detroit, Mich.). This is a narrow spectrum β-lactamase that destroys all kinds of penicillins but not cephalosporins. Assays were conducted with filter paper discs saturated with 100 μl of standard (deacetoxycephalosporin G) or supernatants from the fermentation flask. The diameters of zones of growth inhibition were measured after overnight incubation at 37° C.

The target in experiment [3] is T1, S. clavuligerus expandase (Streptomyces clavuligerus, UniProt P18548).
T1 construct: The cells were resuspended in the same buffer and disrupted by four 25-sec. sonication treatments; endogenous in cells; host or cells: S. clavuligerus mutant NP1, crude cell-free extract
Particulars: literature reports (Jensen 1982; Dotzlaf 1989; Yeh 1994; Maeda 1995); cited from earlier work.

[4] abbreviates: cells grown in MT + 1% E (ethanol).
The mark [5] stands for this setting: cells grown in MT + 1% M (methanol).
The mark [6] stands for this setting: cells grown in MT + 2% E (ethanol).
Setting [7] is: cells grown in MT + 2% M (methanol).
[8] abbreviates: MST supplemented with 50 μg penicillin G/ml, after 72 hours of incubation.
Where [9] appears, read: defined medium, 50 μg/ml penicillin G, after 48 hours.
The mark [10] stands for this setting: defined medium, 100 μg/ml penicillin G, after 48 hours.

T1 sequence (P18548 whole entry): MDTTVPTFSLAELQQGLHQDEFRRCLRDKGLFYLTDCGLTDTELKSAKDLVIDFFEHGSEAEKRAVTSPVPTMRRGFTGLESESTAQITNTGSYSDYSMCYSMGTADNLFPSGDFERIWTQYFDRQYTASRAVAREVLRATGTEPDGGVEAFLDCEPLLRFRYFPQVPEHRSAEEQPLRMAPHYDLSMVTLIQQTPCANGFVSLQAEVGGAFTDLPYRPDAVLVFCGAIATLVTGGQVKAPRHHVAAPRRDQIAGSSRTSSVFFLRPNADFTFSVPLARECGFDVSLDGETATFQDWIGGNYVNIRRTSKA

For the compound `CC1(C)S[C@@H]2[C@H](NC(=O)Cc3ccccc3)C(=O)N2[C@H]1C(=O)O` [Penicillin G, penicillin G], the “Cephalosporin Production Volumetric” value is 12.3 µg/mL in experiment [1] (setting [4]); 5.2 µg/mL in experiment [1] (setting [5]); 6.3 µg/mL in experiment [1] (setting [6]); 4.3 µg/mL in experiment [1] (setting [7]); 5.3 µg/mL in experiment [1] (cells grown in MT). Moreover, the “Cephalosporin Production Specific” value in experiment [1] (setting [4]) is 3.6 µg/mg; in experiment [1] (setting [5]) it was 1.7 µg/mg; in experiment [1] (setting [6]), 7.0 µg/mg; in experiment [1] (setting [7]), 1.5 µg/mg; in experiment [1] (cells grown in MT), 1.5 µg/mg. Moreover, the cephalosporin produced in experiment [2] (setting [8]) is on record as 10.5 μg cephalosporin/ml; in experiment [2] (setting [9]) it was 4.55 μg cephalosporin/ml; in experiment [2] (setting [10]), 10.5 μg cephalosporin/ml. Moreover, the conversion entry in experiment [2] (setting [8]) was “approximately 21%”; in experiment [2] (MST supplemented with 100 μg penicillin G/ml, after 96 hours) it was “the same level of conversion”. Further, the conversion rate in experiment [2] (setting [9]) was found to be 9.1%; in experiment [2] (setting [10]), 10.5%. Moreover, in experiment [3], the ring expansion result was “not”.
